Test results: patent US20250354115A1, “METHOD FOR PRODUCING STEM CELLS AND METHOD FOR PRODUCING GAMMA DELTA T CELLS” (I Peace, Inc., priority 2022, published 2025)

How the values were obtained:
[1] = tested on: γδ T cell receptor (TCR); test: Stimulation of iPS-derived T cell progenitors through the γδ T cell receptor, flow cytometry (Example 5); type: cell-based, human; conditions: day 35; HMBPP 0.01 μg/mL to 1 μg/mL or zoledronic acid 5 μmol/L; no marker expression without stimulants; FIG. 11
Experimental: αMEM medium supplemented with a final concentration of 20% FBS and 1% penicillin/streptomycin was prepared as an OP9 cell culture medium.
OP9 cell culture medium supplemented with a final concentration of 100 mmol/L vitamin C, 10 ng/ML IL-7, 10 μg/mL FLT3 ligand, and 10 μg/mL stem cell factor (SCF) was prepared as a differentiation induction medium.
A dish on which OP9 cells were cultured was prepared as the feeder cells. The OP9 cells were cultured in the OP9 medium. Multiple cell clusters of iPS cells were seeded onto the feeder cells, and stem cell medium containing 10 μmol/L Y27632 was added. The cells were cultured for two days. On the second day, the medium was replaced with the OP9 medium supplemented with vitamin C, and the cells were cultured for an additional 12 days. On days 5, 9, and 13, half of the medium was removed from the dish and replaced with fresh OP9 medium supplemented with vitamin C.
During the 14-day culture, the differentiation of iPS cells into hematopoietic progenitor cells was observed. The cells were confirmed to be positive for CD34 and CD43, which are markers of hematopoietic cells. […]
It was confirmed that CD3 and γδ TCR (Vγ9) were expressed on the surface of the cells. […] In the negative control, where no stimulants were added, no marker expression was detected.

[2] = tested on: Human peripheral blood mononuclear cells; test: iPS cell induction from mononuclear cells in PTA-containing medium (Example 1); type: cell-based; conditions: IL-2 added daily
Experimental: A PTA-containing medium according to Example 1 was prepared using RPMI 1640 medium (Gibco) containing […] of tetrakis-pivaloyloxymethyl-2-(thiazol-2-ylamino) ethylidene-1, 1-bisphosphonate (PTA, Techno Suzuta), 10% fetal bovine serum (Life Technologies), 1.0×10^−5 mol/L 2-mercaptoethanol (Nacalai Tesque), 100 U/mL penicillin, and 100 μg/mL streptomycin (Life Technologies).
Human peripheral blood mononuclear cells were added to the PTA-containing medium according to Example 1, and a medium containing approximately 1×10^6 mononuclear cells was placed into a 24-well plate (Day 1). […] On Day 3, the medium containing cells was collected from the plate, centrifuged, and the supernatant was removed. Then, 2 mL of fresh PTA-containing medium according to Example 1 was added to the cells, and 1 mL of the medium was placed into two wells of a 24-well plate.
On Day 6, the medium containing cells was collected from the plate, centrifuged, and the supernatant was removed. Then, the PTA-containing medium according to Example 1 was added to the cells, and a medium containing 2×10^4 mononuclear cells was placed into a 96-well plate. KLF4, OCT3/4, SOX2, and c-MYC were introduced into the cells using MSRV (Tokiwa Bio). […]
Additionally, genomic DNA was extracted from the iPS cells, and the presence of the recombined Vγ9 gene was analyzed by PCR and electrophoresis. […]

Row | Structure (SMILES) | CD3 and γδ TCR (Vγ9) expression on the surface of the cells [1] | presence of the recombined Vγ9 gene in the iPS cells by PCR and electrophoresis ([2]; FIG. 3) | colonies of iPS cells on Day 14 ([2]; KLF4, OCT3/4, SOX2, c-MYC introduced using MSRV, MOI 5)
1 | C/C(=C\COP(=O)(O)OP(=O)(O)O)CO [HMBPP, (E)-4-hydroxy-3-methyl-but-2-enyl pyrophosphate] | expressed |  | 
2 | CC(C)(C)C(=O)OCOP(=O)(OCOC(=O)C(C)(C)C)C(CNc1nccs1)P(=O)(OCOC(=O)C(C)(C)C)OCOC(=O)C(C)(C)C [PTA, tetrakis-pivaloyloxymethyl-2-(thiazol-2-ylamino) ethylidene-1,1-bisphosphonate] |  | confirmed to possess a recombined Vγ9 gene with a JP gene | multiple colonies
